{"source": "patent US20170056561A1", "about": "“COMPOSITIONS FOR THE TREATMENT OF JOINTS” (CorMedix Inc., priority 2015, published 2017)", "key": {"[1]": {"tested_on": "Pseudomonas aeruginosa (PAO1)", "test": "Solution exposure of HA/taurolidine hydrogels to living cultures (bacteria kill)", "type": "cell-based", "details": "20 μl early phase culture in 980 μl formulation", "method": "(§1) The following evaluations were done to assess the performance of gels comprising hyaluronic acid and taurolidine. Solution exposure of the hyaluronic acid/taurolidine hydrogels, immersed in early phase concentrations of 2 test microorganisms, were conducted. Additionally, the physical properties of the hydrogels were assessed to determine their shear/thixotropic properties.\n(§2) In this study, two strains of bacteria, Pseudomonas aeruginosa (PAO1) and Stapylococcus aureus strain SA 113), were evaluated for total kill of each of the strains after 4 and 24 hours of exposure. 20 μl of early phase culture of each strain was placed in 980 μl of each hyaluronic acid/taurolidine formulation. Samples of remaining bacteria concentrations were determined for the samples after 4 and 24 hours of exposure. Four controls were prepared, one control without hyaluronic acid and three other controls with different molecular weights of hyaluronic acid (low, medium and high MW) (all without taurolidine). These were compared against the same 3 different molecular weights of hyaluronic acid which contained taurolidine, with each hyaluronic acid MW containing target concentrations of 1.5, 3, or 6% taurolidine by weight in the hyaluronic acid hydrogel matrix (Table 1). […] These were also evaluated against a known antimicrobial, gentamicin."}, "[2]": {"tested_on": "Stapylococcus aureus strain SA 113", "test": "Solution exposure of HA/taurolidine hydrogels to living cultures (bacteria kill)", "type": "cell-based", "details": "20 μl early phase culture in 980 μl formulation", "method": "as §1, §2"}}, "data": [{"substance": "Gentamicin", "values": [{"measurement": "Remaining bacteria concentrations PA01 (4 hr)", "setting": "[1]; 4 hour exposure", "result": "0.00E+00"}, {"measurement": "Remaining bacteria concentrations PA01 (24 hr)", "setting": "[1]; 24 hour exposure", "result": "0.00E+00"}, {"measurement": "Remaining bacteria concentrations SA113 (4 hr)", "setting": "[2]; 4 hour exposure", "result": "3.77E+02"}, {"measurement": "Remaining bacteria concentrations SA113 (24 hr)", "setting": "[2]; 24 hour exposure", "result": "8.33E+00"}]}]}
